“Also recorded” adds a separate entry of the source. Like-named read-outs stand apart in the source and are kept apart here.
Assays:
[1] = Pharmacokinetics after oral gavage to male beagle dogs with different pre-treatments (Amgen study 150528); type: in vivo; conditions: 3 mg/kg PO; for Decrease in exposure / bioavailability with change of stomach pH: beagle dogs; for half-life: read-out: T½ (converted); for bioavailability: compared to Phase 1 of the same form, read-out: Relative % F
Method: The pharmacokinetics of AMG 397 were assessed following oral administration to male beagle dogs as either a suspension of the crystalline hydrate form of AMG 397 or an amorphous suspension in 2% HPMC, 0.01% Tween 80. The full protocol is described in Amgen study number 150528. The goal of this study was to determine if the amorphous material would lead to increases in bioavailability and if variability in dosing could be reduced. In addition, oncology patients could be receiving acid-reducing agents as co-medication, so it is important to determine if exposure is reduced with elevated stomach pH and if an amorphous formulation of AMG 397 could overcome the drug-drug interaction (DDI). For the studies below, Form 1 is the crystalline hydrate form of AMG 397 and amorphous is the amorphous form of AMG 397.
(§1) Briefly, during each phase five male beagle dogs were assigned to each group of the study. All animals were fasted for at least eight hours prior to dosing and through the first four hours of blood sample collection for each phase. Food was returned within 30 minutes following collection of the last blood sample at the four-hour collection interval. Each animal in Phase 1, received a single oral (PO) gavage dose of the appropriate test article formulation as outlined in the study design Table 6. Oral gavage dosing formulations were continuously stirred throughout dosing. The gavage tube was rinsed with approximately 10 mL of tap water following dosing (prior to removal of the gavage tube). Following each study phase a 7-day washout period was allowed prior to the dosing of the next phase. The same five dogs were assigned to either group 1 or group 2 formulations for the duration of the study.
(§2) Test Article Administration: A total of 10 male beagle dogs were initially assigned to study. All animals were fasted for at least eight hours prior to dosing and through the first four hours of blood sample collection for each phase, where applicable (food will be returned within 30 minutes following collection of the last blood sample at the four hour collection interval, where applicable). Total fasting time […] 24 hours.
Each animal in Phase 1, Groups 1 and 2 received a single oral (PO) gavage dose of the appropriate test article formulation as outlined in the following study design table. Oral gavage dosing formulations was continuously stirred throughout dosing. The gavage tube was rinsed with approximately 10 mL of tap water following dosing (prior to removal of the gavage tube). No pre-treatment will be required for Phase 1.
After a 7-day washout period, each animal in Phase 2, Groups land 2 received a single oral (PO) gavage dose of the appropriate test article formulation as outlined in the following study design table. Oral gavage dosing formulations were continuously stirred throughout dosing. The gavage tube were rinsed with approximately 10 mL of tap water following dosing (prior to removal of the gavage tube). Two hours prior to dosing, each animal received two 20 mg (40 mg total) oral tablets of famotidine followed by a 10 mL dose of deionized water.
After another 7-day washout period, each animal in Phase 3, Groups land 2 received a single oral (PO) gavage dose of the appropriate test article formulation as outlined in the following study design table. Oral gavage dosing formulations were continuously stirred throughout dosing. The gavage tube was rinsed with approximately 10 mL of tap water following dosing (prior to removal of the gavage tube). Thirty minutes prior to dosing, each animal received an intramuscular dose of pentagastrin in phosphate buffered saline at a dose level of 0.006 mg/kg and a dose volume of 0.05 mL/kg.
After a final 7-day washout period, each animal in Phase 4, Groups 1 and 2 received a single oral (PO) gavage dose of the appropriate test article formulation as outlined in the following study design table. Oral gavage dosing formulations were continuously stirred throughout dosing. […]

[2] = Clinical observations in the beagle dog PK study; type: in vivo, male beagle dogs; conditions: 3 mg/kg PO, individual dogs, listed as AMG 397 Form 1
Method: as §1, §2
Different pre-treatments were assigned for each phase of the study to mimic several scenarios: • 1. No pre-treatment was administered for Phase 1 as it served as a control. • 2. During Phase 2, at 1 hour 54 minutes to 1 hour 58 minutes prior to dose administration, all animals were pretreated with two 20 mg (40 mg total) oral tablets of famotidine followed by a 10 mL dose of deionized water. […] This was used to determine the role of stomach pH on exposure. • 3. During Phases 3 and 4, at 30 to 38 minutes prior to dose administration, all animals were pretreated with a single intramuscular dose of pentagastrin in phosphate buffered saline, pH 7.4, at a dose level of 0.006 mg/kg and a dose volume of 0.05 mL/kg. The pentagastrin dose was used to ensure that the dogs stomach pH was normalized to pH ˜2.0 as it is known that the dogs stomach pH is often higher than that of humans under resting conditions. • 4. In addition, […], at 1 hour 3 minutes to 1 hour 6 minutes prior to dose administration and 4 hours 10 minutes to 4 hours 11 minutes following dose by oral gavage at a dose level of 3 mg/kg and a dose volume of 4 mL/kg. This final phase was used to study if P-gp played a role in absorption.

[3] = Moisture sorption profile (DVS); type: physicochemical; conditions: by 95% RH; listed as crystalline hydrate form of AMG 397
Method: Moisture Sorption: Moisture sorption data was collected using a Surface Measurement Systems DVSAdvantage instrument. Equilibrium criteria were set at ±0.001% weight change in 10 minutes with a maximum equilibrium time of 380 minutes.
Moisture Sorption: Moisture sorption data was collected using a Surface Measurement Systems DVSAdvantage instrument. Equilibrium criteria were set at ±0.001% weight change in 10 minutes with a maximum equilibrium time of 360 minutes.

[4] = Phase 1, no pre-treatment, male beagle dogs
[5] = Phase 2, famotidine pre-treatment (stomach pH ~6.5), male beagle dogs
[6] = male, beagle, dog, plasma, po, 3 mg/kg, Phase 3, pentagastrin pre-treatment (stomach pH ~2.0), male beagle dogs
[7] = male, beagle, dog, plasma, po, 3 mg/kg, Phase 4, pentagastrin pre-treatment + P-gp inhibitor GF120918, male beagle dogs

In the case of `CO[C@]1(CN2CCN3CCCC[C@@H]3C2)/C=C/C[C@H](C)[C@@H](C)S(=O)(=O)NC(=O)c2ccc3c(c2)N(C[C@@H]2CC[C@H]21)C[C@@]1(CCCc2cc(Cl)ccc21)CO3` [AMG 397 Crystalline Hydrate], the AUCt [1, 4] is reported as 5.5 µM·h, the Cl/F [1, 4] is reported as 41.7 mL/min/kg and the Cmax [1, 4] is reported as 230 nM. For the same molecule, the Tmax [1, 4] was 12.4 h, the AUCt [1, 5] was 6.3 µM·h and the Cl/F [1, 5] was 43.3 mL/min/kg. For the same molecule, the Cmax [1, 5] was 260 nM, the Cl/F ([1]; Phase 3, pentagastrin pre-treatment (stomach pH ~2.0), male beagle dogs) was 13.8 mL/min/kg and the “Decrease in exposure / bioavailability with change of stomach pH” value ([1]; listed as crystalline hydrate form of AMG 397, 3 mg/kg) was no more than 2 fold. The “Decrease in exposure / bioavailability with change of stomach pH” value ([1]; listed as crystalline hydrate form, 3 mg/kg) was 2 fold, the half-life ([1]; male, beagle, dog, plasma, po, 3 mg/kg, Phase 1, no pre-treatment, male beagle dogs) was 17.3 h and the bioavailability ([1]; male, beagle, dog, plasma, po, 3 mg/kg, Phase 1, no pre-treatment) was 100%. The Tmax ([1]; male, beagle, dog, plasma, po, 3 mg/kg, Phase 2, famotidine pre-treatment (stomach pH ~6.5), male beagle dogs, read-out: Tmax) was 12.8 h, the half-life ([1]; male, beagle, dog, plasma, po, 3 mg/kg, Phase 2, famotidine pre-treatment (stomach pH ~6.5), male beagle dogs) was 16.5 h and the bioavailability ([1]; male, beagle, dog, plasma, po, 3 mg/kg, Phase 2, famotidine pre-treatment) was 113%. For the same molecule, the AUC(0-t) [1, 6] was 11.3 µM·h, the Cmax [1, 6] was 450 nM and the Tmax ([1]; male, beagle, dog, plasma, po, 3 mg/kg, Phase 3, pentagastrin pre-treatment (stomach pH ~2.0), male beagle dogs, read-out: Tmax) was 13.2 h. The half-life [1, 6] was 23.3 h, the AUC(0-t) [1, 7] was 16.3 µM·h and the CL/F [1, 7] was 5.17 mL/min/kg. It also gave a Cmax [1, 7] of 600 nM, a Tmax ([1]; male, beagle, dog, plasma, po, 3 mg/kg, Phase 4, pentagastrin pre-treatment + P-gp inhibitor GF120918, male beagle dogs, read-out: Tmax) of 11.6 h and a half-life [1, 7] of 25 h. For the same molecule, the “Positive clinical findings (observation)” value ([2]; Phase 2 (Days 8 to 14), famotidine pre-treatment) was “Limb function impaired”, the “Positive clinical findings (observation)” value ([2]; Phase 3 (Days 15 to 21), pentagastrin pre-treatment) was “White, frothy vomitus; also recorded: Limb function impaired; also recorded: Wet hair on entire body; also recorded: Inappetence” and the “Positive clinical findings (observation)” value ([2]; Phase 4 (Days 22 to 24), pentagastrin pre-treatment and inhibitor GF120918 pre- and post-treatment) was “Large amount of white,”. The “Moisture sorption weight gain” value [3] was 3.3%.

— patent US12643913B2, “Mcl-1 inhibitor formulations” (AMGEN INC., priority 2020, dated 2026)
